Results taken from ChEMBL document CHEMBL1127774, “2,3,6-Substituted quinazolinones as angiotensin II receptor antagonists” (Bioorg Med Chem Lett, 1994).

The molecules below were run against T1, Angiotensin II receptor (Rattus norvegicus, UniProt P29089+P25095+P35351) (assay: Concentration required for 50% inhibition of binding against Angiotensin II receptor in the rat adrenal cortex tissue).
T1 sequence (P29089 whole entry): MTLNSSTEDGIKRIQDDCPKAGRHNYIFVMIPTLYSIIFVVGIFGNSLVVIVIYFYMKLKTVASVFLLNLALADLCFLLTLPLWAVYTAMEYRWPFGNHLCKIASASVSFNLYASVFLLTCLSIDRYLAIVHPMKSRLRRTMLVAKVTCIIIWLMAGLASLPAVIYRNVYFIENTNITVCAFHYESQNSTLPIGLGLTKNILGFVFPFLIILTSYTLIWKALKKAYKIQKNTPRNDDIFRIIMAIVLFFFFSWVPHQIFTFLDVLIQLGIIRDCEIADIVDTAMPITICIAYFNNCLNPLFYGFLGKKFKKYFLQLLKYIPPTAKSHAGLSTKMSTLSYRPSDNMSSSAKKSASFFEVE
T1 sequence (P25095 whole entry): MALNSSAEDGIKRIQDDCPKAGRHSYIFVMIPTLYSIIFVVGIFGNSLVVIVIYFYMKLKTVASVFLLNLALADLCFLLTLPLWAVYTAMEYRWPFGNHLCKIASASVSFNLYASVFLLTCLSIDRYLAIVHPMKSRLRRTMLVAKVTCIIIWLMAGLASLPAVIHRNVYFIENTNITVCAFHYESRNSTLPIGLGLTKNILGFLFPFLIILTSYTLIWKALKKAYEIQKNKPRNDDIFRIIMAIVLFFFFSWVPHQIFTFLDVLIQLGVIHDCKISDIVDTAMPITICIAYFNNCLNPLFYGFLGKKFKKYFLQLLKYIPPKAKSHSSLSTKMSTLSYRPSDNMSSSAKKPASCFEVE
T1 sequence (P35351 whole entry): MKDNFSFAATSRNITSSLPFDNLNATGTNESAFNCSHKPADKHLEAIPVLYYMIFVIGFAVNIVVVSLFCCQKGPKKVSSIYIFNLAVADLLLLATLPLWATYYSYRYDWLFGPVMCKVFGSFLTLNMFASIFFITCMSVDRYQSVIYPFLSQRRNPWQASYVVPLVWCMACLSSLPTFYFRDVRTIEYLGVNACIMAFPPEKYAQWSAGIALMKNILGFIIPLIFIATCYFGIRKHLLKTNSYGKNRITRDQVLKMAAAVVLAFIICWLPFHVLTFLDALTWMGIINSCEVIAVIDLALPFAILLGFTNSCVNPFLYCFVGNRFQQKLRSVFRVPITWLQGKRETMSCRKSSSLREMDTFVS
Format: tissue-based
Work on `CCCCc1nc2ccc(C(C)N)cc2c(=O)n1Cc1ccc(-c2ccccc2-c2nn[nH]n2)cc1` (centres undefined) yielded an IC50 of 0.014 µM. Work on `CCCCc1nc2ccc(CN)cc2c(=O)n1Cc1ccc(-c2ccccc2-c2nn[nH]n2)cc1` yielded an IC50 of 0.015 µM. Molecule `CCCCc1nc2ccc(C(C)(C)O)cc2c(=O)n1Cc1ccc(-c2ccccc2-c2nn[nH]n2)cc1` has an IC50 of 0.009 µM. In the case of `CCCCc1nc2ccc(COC)cc2c(=O)n1Cc1ccc(-c2ccccc2-c2nn[nH]n2)cc1`, the IC50 is reported as 0.018 µM. In the case of `CCCCc1nc2ccc(C(CC)OC)cc2c(=O)n1Cc1ccc(-c2ccccc2-c2nn[nH]n2)cc1` (centres undefined), the IC50 is reported as 0.005 µM. Molecule `CCCCc1nc2ccc(C(O)CC)cc2c(=O)n1Cc1ccc(-c2ccccc2-c2nn[nH]n2)cc1` (centres undefined) has an IC50 of 0.012 µM. For `CCCCc1nc2ccc(C(C)OC)cc2c(=O)n1Cc1ccc(-c2ccccc2-c2nn[nH]n2)cc1` (centres undefined), the IC50 was 0.007 µM. `CCCCc1nc2ccc(CO)cc2c(=O)n1Cc1ccc(-c2ccccc2-c2nn[nH]n2)cc1` showed an IC50 of 0.01 µM. Work on `CCCCc1nc2ccc(C(C)O)cc2c(=O)n1Cc1ccc(-c2ccccc2-c2nn[nH]n2)cc1` (centres undefined) yielded an IC50 of 0.009 µM. In the case of `CCCCc1nc2ccc(C(O)CO)cc2c(=O)n1Cc1ccc(-c2ccccc2-c2nn[nH]n2)cc1` (centres undefined), the IC50 is reported as 1 µM. With `CCCCc1nc2ccc(C(OC)c3ccccc3)cc2c(=O)n1Cc1ccc(-c2ccccc2-c2nn[nH]n2)cc1` (centres undefined) the IC50 was 0.009 µM. For `CCCCc1nc2ccc(C(O)C(C)(C)C)cc2c(=O)n1Cc1ccc(-c2ccccc2-c2nn[nH]n2)cc1` (centres undefined), the IC50 was 1 µM. For `CCCCc1nc2ccc(C(C)NC(C)=O)cc2c(=O)n1Cc1ccc(-c2ccccc2-c2nn[nH]n2)cc1` (centres undefined), the IC50 was 0.006 µM. `CCCCc1nc2ccc(C)cc2c(=O)n1Cc1ccc(-c2ccccc2-c2nn[nH]n2)cc1` showed an IC50 of 0.01 µM. `CCCCc1nc2ccc(C(C)(C)OC)cc2c(=O)n1Cc1ccc(-c2ccccc2-c2nn[nH]n2)cc1` [CL-329167] gave an IC50 of 0.006 µM.

What follows are molecules tested against T2, Type-1 angiotensin II receptor (Bos taurus, UniProt P25104) (assay: Concentration required for 50% inhibition of binding against Angiotensin II receptor in the bovine adrenal cortex tissue).
T2 sequence (P25104 whole entry): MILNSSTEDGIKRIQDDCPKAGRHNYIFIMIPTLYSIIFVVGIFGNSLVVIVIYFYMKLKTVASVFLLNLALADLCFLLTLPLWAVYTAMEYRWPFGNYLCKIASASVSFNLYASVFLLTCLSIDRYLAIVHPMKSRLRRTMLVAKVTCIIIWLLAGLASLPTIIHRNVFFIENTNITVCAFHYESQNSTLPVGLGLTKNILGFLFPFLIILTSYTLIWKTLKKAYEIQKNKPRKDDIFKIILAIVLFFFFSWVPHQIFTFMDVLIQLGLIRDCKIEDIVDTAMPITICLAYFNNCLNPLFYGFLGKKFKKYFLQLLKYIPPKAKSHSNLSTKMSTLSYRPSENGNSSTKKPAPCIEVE
Format: tissue-based
For `CCCCc1nc2ccc(COc3ccccn3)cc2c(=O)n1Cc1ccc(-c2ccccc2-c2nn[nH]n2)cc1`, the IC50 was 0.13 µM. Work on `CCCCc1nc2ccc(COc3ccccc3)cc2c(=O)n1Cc1ccc(-c2ccccc2-c2nnn[nH]2)cc1` yielded an IC50 of 0.13 µM. `CCCCc1nc(Cl)c(CO)n1Cc1ccc(-c2ccccc2-c2nn[nH]n2)cc1` [LOSARTAN] gave an IC50 of 0.33 µM.

These molecules were tested against Type-1 angiotensin II receptor (Oryctolagus cuniculus) (UniProt P34976) (assay: Concentration required for inhibition […] against Angiotensin II receptor in rabbit aortic rings).
Type-1 angiotensin II receptor (Oryctolagus cuniculus), sequence (P34976 whole entry, looked up): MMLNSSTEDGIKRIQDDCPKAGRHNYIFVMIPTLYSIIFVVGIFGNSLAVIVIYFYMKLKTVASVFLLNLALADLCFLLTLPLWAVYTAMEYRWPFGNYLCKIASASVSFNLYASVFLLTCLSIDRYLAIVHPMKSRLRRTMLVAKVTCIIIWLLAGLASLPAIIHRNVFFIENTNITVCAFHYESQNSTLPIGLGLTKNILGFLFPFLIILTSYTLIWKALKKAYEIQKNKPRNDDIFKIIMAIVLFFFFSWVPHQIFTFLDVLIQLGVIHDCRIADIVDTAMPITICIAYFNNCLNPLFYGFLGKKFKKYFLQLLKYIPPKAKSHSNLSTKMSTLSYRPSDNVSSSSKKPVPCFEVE
With `CCCCc1nc2ccc(C(C)(C)OC)cc2c(=O)n1Cc1ccc(-c2ccccc2-c2nn[nH]n2)cc1` [CL-329167] the pA2 was 8.01.
